According to patent US20020137929A1, “1 - (3-heterocyclylphenyl) isothiourea, -isourea, -guanidine and -amidine herbicidal agents” (Intellectual Property Department, BASF Aktiengesellschaft, priority 1998, published 2002):

Experiments:
[1] = tested on: IPOHE (Morningglory, Ivyleaf); test: Preemergence herbicidal evaluation; type: in vivo, Ipomoea hederacea; details: rate 0.2500 kg/ha; rated 4-5 weeks after treatment
Method in brief: (§1)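 Sown cups got a single aqueous acetone spray of test compound (roughly 0.0156–0.500 kg/ha) before seedlings emerged. Evaluation, 4–5 weeks on, used a 0–9 visual scale covering plant stand, vigor, size, malformation, chlorosis and general appearance compared with controls.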

[2] = tested on: ABUTH (Velvetleaf); test: Preemergence herbicidal evaluation; type: in vivo, Abutilon theophrasti; details: rate 0.2500 kg/ha; rated 4-5 weeks after treatment
Method in brief: as §1

[3] = tested on: ECHORC (Watergrass (Calif.)); test: Preemergence weed control under flooded paddy conditions; type: in vivo, Echinochloa oryzoides; details: rated 3-4 weeks after treatment
Method in brief: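 Herbicidal effect is scored visually on a 0-9 scale against an untreated control, three to four weeks after compounds are pipetted into the flood water (1.5 to 3 cm deep) over seeds planted in silt loam at 0.5 cm depth. Rates: about 0.0313 to 0.500 kg/ha.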

[4] = tested on: SETVI (Foxtail, Green); test: Postemergence herbicidal evaluation; type: in vivo, Setaria viridis; details: postemergence
Method in brief: (§2)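 Rate range approx. 0.0156–0.500 kg/ha. Foliar application at 40 psi to ~2-week seedlings; surfactant 0.5% TWEEN 20 in 50/50 acetone/water. Evaluation 4–5 wk post-treatment by 0–9 visual injury score, means of replicate tests.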

[5] = tested on: AMBEL (Ragweed, Common); test: Preemergence herbicidal evaluation; type: in vivo, Ambrosia artemisifolia; details: rate 0.2500 kg/ha; rated 4-5 weeks after treatment
Method in brief: as §1

[6] = tested on: GLXMAW (Soybean, Williams); test: Postemergence herbicidal evaluation; type: in vivo, Glycine max, (L.) Merr. cv Williams; details: postemergence
Method in brief: as §2

[7] = tested on: ECHORC (Watergrass (Calif.)); test: Postemergence weed control under flooded paddy conditions; type: in vivo, Echinochloa oryzoides; details: postemergence weeds, 3-4 weeks after treatment
Method in brief: (§3)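 Flood-water application, about 0.0313–0.500 kg/ha a.i. in aqueous/acetone 50/50 v/v; water depth 1.5–3 cm throughout. Weeds 3–5 cm, rice 1.5–2.5 leaf. Greenhouse; 0–9 visual rating vs control at 3–4 wk.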

[8] = tested on: ABUTH (Velvetleaf); test: Postemergence herbicidal evaluation; type: in vivo, Abutilon theophrasti; details: postemergence
Method in brief: as §2

[9] = tested on: IPOHE (Morningglory, Ivyleaf); test: Postemergence herbicidal evaluation; type: in vivo, Ipomoea hederacea; details: postemergence
Method in brief: as §2

[10] = tested on: ZEAMX (Corn, Field); test: Postemergence herbicidal evaluation; type: in vivo, Zea mays; details: postemergence
Method in brief: as §2

[11] = tested on: CYPIR (Rice Flatsedge); test: Postemergence weed control under flooded paddy conditions; type: in vivo, Cyperus iria; details: postemergence weeds, 3-4 weeks after treatment
Method in brief: as §3

[12] = tested on: CASOB (Sicklepod); test: Preemergence herbicidal evaluation; type: in vivo, Cassia obtusifolia; details: rate 0.2500 kg/ha; rated 4-5 weeks after treatment
Method in brief: as §1

[13] = tested on: CYPSE (Flatsedge); test: Preemergence weed control under flooded paddy conditions; type: in vivo, Cyperus serotinus; details: rated 3-4 weeks after treatment
Method in brief: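 Visual injury scored 0-9 against control three to four weeks post-treatment, greenhouse-grown. Application: acetone/water (50/50) solutions dosed directly into flood water (1.5-3 cm over silt loam, planted top 0.5 cm), roughly 0.0313 to 0.500 kg/ha active ingredient.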

[14] = tested on: ECHCG (Barnyardgrass); test: Preemergence herbicidal evaluation; type: in vivo, Echinochloa crus-galli; details: rate 0.2500 kg/ha; rated 4-5 weeks after treatment
Method in brief: as §1

CCOC(=O)CN1C(=O)C(=Cc2ccc(F)cc2)SC1=Nc1cc(-n2c(=O)cc(C(F)(F)F)n(C)c2=O)c(F)cc1Cl [Compound 21, Ethyl 2-{{2-chloro-5-[3,6-dihydro-3-methyl-2,6-dioxo-4-(trifluoromethyl)-1(2H)-pyrimidinyl]-4-fluorophenyl}imino}-5-(p-fluorobenzylidene)-4-oxo-3-thiazolidineacetate]
IPOHE preemergence herbicidal rating [1]: 0.0
ABUTH preemergence herbicidal rating [2]: 2.0
Herbicidal rating ECHORC ([3]; 0.1160 kg/ha): 2.0
Herbicidal rating ECHORC ([3]; 0.2310 kg/ha): 4.0
Herbicidal rating ECHORC ([3]; 0.4630 kg/ha): 5.0
SETVI herbicidal rating ([4]; rate 0.0158 kg/ha): 0.0
SETVI herbicidal rating ([4]; rate 0.0315 kg/ha): 2.0
SETVI herbicidal rating ([4]; rate 0.0630 kg/ha): 2.0
AMBEL preemergence herbicidal rating [5]: 0.0
GLXMAW herbicidal rating ([6]; rate 0.0158 kg/ha): 2.0
GLXMAW herbicidal rating ([6]; rate 0.0315 kg/ha): 2.5
GLXMAW herbicidal rating ([6]; rate 0.0630 kg/ha): 4.5
Herbicidal rating ECHORC ([7]; rate 0.1160 kg/ha): 2.0
Herbicidal rating ECHORC ([7]; rate 0.2310 kg/ha): 4.0
Herbicidal rating ECHORC ([7]; rate 0.4630 kg/ha): 5.0
ABUTH herbicidal rating ([8]; rate 0.0158 kg/ha): 4.0
ABUTH herbicidal rating ([8]; rate 0.0315 kg/ha): 7.0
ABUTH herbicidal rating ([8]; rate 0.0630 kg/ha): 9.0
IPOHE herbicidal rating ([9]; rate 0.0158 kg/ha): 1.0
IPOHE herbicidal rating ([9]; rate 0.0315 kg/ha): 2.0
IPOHE herbicidal rating ([9]; rate 0.0630 kg/ha): 9.0
ZEAMX herbicidal rating ([10]; rate 0.0158 kg/ha): 4.0
ZEAMX herbicidal rating ([10]; rate 0.0315 kg/ha): 4.0
ZEAMX herbicidal rating ([10]; rate 0.0630 kg/ha): 4.5
Herbicidal rating CYPIR ([11]; rate 0.1160 kg/ha): 0.0
Herbicidal rating CYPIR ([11]; rate 0.2310 kg/ha): 0.0
Herbicidal rating CYPIR ([11]; rate 0.4630 kg/ha): 0.0
CASOB preemergence herbicidal rating [12]: 0.0
Herbicidal rating CYPSE ([13]; 0.1160 kg/ha): 0.0
Herbicidal rating CYPSE ([13]; 0.2310 kg/ha): 0.0
Herbicidal rating CYPSE ([13]; 0.4630 kg/ha): 0.0
ECHCG preemergence herbicidal rating [14]: 0.0
